Measurements reported in PubChem BioAssay AID192 (DTP/NCI, 2004).
Several values for one entry are separate records, joined by “and”; a condition that tells them apart may be missing. Equal values may be shown once. Inconclusive results and toxic doses are left out.

Test system: BDF1 mice, B16 melanoma ip, median survival T/C
Assay: NCI In Vivo Anticancer Drug Screen. Data for tumor model B16 Melanoma (intraperitoneal) in B6D2F1 (BDF1) mice
Settings: endpoint: median survival time, higher = longer survival
Outline: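 In this screen, activity was judged from survival or tumor size in treated versus vehicle-treated tumor-bearing mice, reported as T/C.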

[1] = dose: 100.0 mg/kg/injection, schedule: Q01DX009 (ip), vehicle: saline
[2] = dose: 200.0 mg/kg/injection, schedule: Q01DX009 (ip), vehicle: saline
[3] = dose: 12.5 mg/kg/injection, schedule: Q01DX009 (ip), vehicle: Klucel (hydroxypropylcellulose) (HPC)
[4] = dose: 50.0 mg/kg/injection, schedule: Q01DX009 (ip), vehicle: saline
[5] = dose: 12.5 mg/kg/injection, schedule: Q01DX009 (ip), vehicle: saline with Tween-80
[6] = dose: 25.0 mg/kg/injection, schedule: Q01DX009 (ip), vehicle: saline with Tween-80
[7] = dose: 50.0 mg/kg/injection, schedule: Q01DX009 (ip), vehicle: saline with Tween-80
[8] = dose: 100.0 mg/kg/injection, schedule: Q01DX009 (ip), vehicle: saline with Tween-80
[9] = dose: 200.0 mg/kg/injection, schedule: Q01DX009 (ip), vehicle: saline with Tween-80
[10] = dose: 100.0 mg/kg/injection, schedule: Q01DX009 (ip), vehicle: Klucel (hydroxypropylcellulose) (HPC)
[11] = dose: 25.0 mg/kg/injection, schedule: Q01DX009 (ip), vehicle: Klucel (hydroxypropylcellulose) (HPC)
[12] = dose: 50.0 mg/kg/injection, schedule: Q01DX009 (ip), vehicle: Klucel (hydroxypropylcellulose) (HPC)

Cc1cn(C2CC(O)C(CO)O2)c(=O)[nH]c1=O (stereo not drawn)
T/C (dose: 12.5 mg/kg/injection, schedule: Q01DX009 (ip), vehicle: saline): 88 % of control | T/C (dose: 32.0 mg/kg/injection, schedule: Q01DX009 (ip), vehicle: saline with Tween-80): 111 % of control | T/C (dose: 32.0 mg/kg/injection, schedule: Q01DX009 (ip), vehicle: saline): 95 % of control and 108 % of control | T/C (dose: 50.0 mg/kg/injection, schedule: Q03HX032 (ip), vehicle: saline): 105 % of control | T/C (dose: 64.0 mg/kg/injection, schedule: Q01DX009 (ip), vehicle: saline with Tween-80): 120 % of control | T/C (dose: 64.0 mg/kg/injection, schedule: Q01DX009 (ip), vehicle: saline): 100 % of control and 101 % of control | T/C [1]: 103 % of control | T/C (dose: 100.0 mg/kg/injection, schedule: Q03HX032 (ip), vehicle: saline): 97 % of control | T/C (dose: 128.0 mg/kg/injection, schedule: Q01DX009 (ip), vehicle: saline with Tween-80): 120 % of control | T/C (dose: 128.0 mg/kg/injection, schedule: Q01DX009 (ip), vehicle: saline): 98 % of control and 103 % of control | T/C (dose: 150.0 mg/kg/injection, schedule: Q02HX012 (ip), vehicle: saline): 103 % of control | T/C [2]: 89 % of control | T/C (dose: 200.0 mg/kg/injection, schedule: Q02HX012 (ip), vehicle: saline): 102 % of control | T/C (dose: 200.0 mg/kg/injection, schedule: Q03HX032 (ip), vehicle: saline): 89 % of control | T/C (dose: 256.0 mg/kg/injection, schedule: Q01DX009 (ip), vehicle: saline with Tween-80): 120 % of control | T/C (dose: 256.0 mg/kg/injection, schedule: Q01DX009 (ip), vehicle: saline): 96 % of control and 102 % of control | T/C (dose: 300.0 mg/kg/injection, schedule: Q02HX012 (ip), vehicle: saline): 102 % of control | T/C (dose: 400.0 mg/kg/injection, schedule: Q02HX012 (ip), vehicle: saline): 102 % of control | T/C (dose: 400.0 mg/kg/injection, schedule: Q03HX032 (ip), vehicle: saline): 92 % of control | T/C (dose: 512.0 mg/kg/injection, schedule: Q01DX009 (ip), vehicle: saline with Tween-80): 91 % of control | T/C (dose: 512.0 mg/kg/injection, schedule: Q01DX009 (ip), vehicle: saline): 104 % of control and 107 % of control | T/C (dose: 600.0 mg/kg/injection, schedule: Q02HX012 (ip), vehicle: saline): 97 % of control

CCN(CC)CCCNc1nccc2c(C)c3[nH]c4ccncc4c3cc12
T/C (dose: 0.37 mg/kg/injection, schedule: Q01DX009 (ip), vehicle: other): 115 % of control | T/C (dose: 0.38 mg/kg/injection, schedule: Q01DX009 (ip), vehicle: other): 160 % of control | T/C (dose: 0.75 mg/kg/injection, schedule: Q01DX009 (ip), vehicle: other): 171 % of control and 177 % of control | T/C (dose: 1.5 mg/kg/injection, schedule: Q01DX009 (ip), vehicle: other): 163 % of control and 218 % of control | T/C (dose: 3.0 mg/kg/injection, schedule: Q01DX009 (ip), vehicle: other): 163 % of control and 233 % of control | T/C (dose: 6.0 mg/kg/injection, schedule: Q01DX009 (ip), vehicle: other): 188 % of control and 213 % of control

O=C(Nc1ccccc1)Nc1cc(C(F)(F)F)ccc1Cl
T/C (dose: 100.0 mg/kg/injection, schedule: Q04DX009 (ip), vehicle: Klucel (hydroxypropylcellulose) (HPC)): 109 % of control | T/C (dose: 200.0 mg/kg/injection, schedule: Q04DX003 (ip), vehicle: carboxymethylcellulose (CMC)): 90 % of control | T/C (dose: 200.0 mg/kg/injection, schedule: Q04DX009 (ip), vehicle: Klucel (hydroxypropylcellulose) (HPC)): 106 % of control | T/C (dose: 400.0 mg/kg/injection, schedule: Q04DX003 (ip), vehicle: carboxymethylcellulose (CMC)): 92 % of control | T/C (dose: 400.0 mg/kg/injection, schedule: Q04DX009 (ip), vehicle: Klucel (hydroxypropylcellulose) (HPC)): 86 % of control

CS(=O)(=O)OCCCOS(C)(=O)=O
T/C [3]: 91 % of control

CNC(=O)Oc1ccc2c(c1)OCO2
T/C [4]: 95 % of control | T/C [1]: 114 % of control | T/C [2]: 107 % of control

Nc1ccc(S(=O)(=O)N/N=C/c2ccccc2Cl)cc1
T/C [5]: 107 % of control | T/C [6]: 102 % of control | T/C [7]: 107 % of control

O=[N+]([O-])c1ccc(NCc2ccccc2)nc1
T/C [6]: 100 % of control | T/C [7]: 100 % of control | T/C [8]: 121 % of control | T/C [9]: 105 % of control

COc1ccccc1C(=O)c1ccccc1Cc1cccc2ccccc12
T/C [7]: 98 % of control | T/C [8]: 97 % of control | T/C [9]: 92 % of control | T/C (dose: 400.0 mg/kg/injection, schedule: Q01DX009 (ip), vehicle: saline with Tween-80): 93 % of control

CCCCN(c1ccccc1)c1ncnc2c1cnn2C
T/C (dose: 100.0 mg/kg/injection, schedule: Q04DX003 (ip), vehicle: saline with Tween-80): 100 % of control | T/C (dose: 200.0 mg/kg/injection, schedule: Q04DX003 (ip), vehicle: saline with Tween-80): 102 % of control | T/C (dose: 400.0 mg/kg/injection, schedule: Q04DX003 (ip), vehicle: saline with Tween-80): 100 % of control

COCCCN1CCN(c2ccccc2OC)CC1
T/C (dose: 25.0 mg/kg/injection, schedule: Q01DX009 (ip), vehicle: saline): 101 % of control | T/C [4]: 92 % of control

CC(=O)Nc1cccc2c1CCCC2
T/C (dose: 100.0 mg/kg/injection, schedule: Q04DX003 (ip), vehicle: gum acacia): 113 % of control | T/C (dose: 200.0 mg/kg/injection, schedule: Q04DX003 (ip), vehicle: gum acacia): 97 % of control | T/C (dose: 400.0 mg/kg/injection, schedule: Q04DX003 (ip), vehicle: gum acacia): 95 % of control

CCCC(C)C/C(C)=C/C(C)(C)C(CC(=O)N1CCOCC1)C(=O)O (stereo not drawn)
T/C [5]: 100 % of control | T/C [6]: 92 % of control | T/C (dose: 25.0 mg/kg/injection, schedule: Q04DX003 (ip), vehicle: saline with Tween-80): 92 % of control | T/C (dose: 50.0 mg/kg/injection, schedule: Q04DX003 (ip), vehicle: saline with Tween-80): 92 % of control

CCC/C=C/C(C)C
T/C [10]: 95 % of control | T/C (dose: 200.0 mg/kg/injection, schedule: Q01DX009 (ip), vehicle: Klucel (hydroxypropylcellulose) (HPC)): 88 % of control | T/C (dose: 400.0 mg/kg/injection, schedule: Q01DX009 (ip), vehicle: Klucel (hydroxypropylcellulose) (HPC)): 95 % of control

C[C@]12CCC(=O)C=C1[C@@H](F)C[C@@H]1[C@@H]2[C@@H](O)C[C@@]2(C)[C@H]1CC[C@]2(O)C(=O)CO
T/C (dose: 25.0 mg/kg/injection, schedule: Q01DX009 (sc), vehicle: steriod suspending solution): 95 % of control | T/C (dose: 50.0 mg/kg/injection, schedule: Q01DX009 (sc), vehicle: steriod suspending solution): 97 % of control | T/C (dose: 100.0 mg/kg/injection, schedule: Q01DX009 (sc), vehicle: steriod suspending solution): 101 % of control

COc1ccc(N2CSC(=S)N(c3ccc(OC)cc3)C2)cc1
T/C (dose: 8.0 mg/kg/injection, schedule: Q01DX009 (ip), vehicle: saline with Tween-80): 97 % of control | T/C (dose: 12.0 mg/kg/injection, schedule: Q01DX009 (ip), vehicle: saline with Tween-80): 90 % of control | T/C (dose: 18.0 mg/kg/injection, schedule: Q01DX009 (ip), vehicle: saline with Tween-80): 90 % of control | T/C [11]: 102 % of control | T/C [6]: 112 % of control | T/C [12]: 94 % of control | T/C [7]: 115 % of control | T/C [10]: 114 % of control

CCNc1nc(NC(C)C)nc(OC)n1
T/C (dose: 6.25 mg/kg/injection, schedule: Q01DX009 (ip), vehicle: saline with Tween-80): 113 % of control | T/C [5]: 108 % of control | T/C [6]: 110 % of control

CSc1nc(C)cc(Cl)n1
T/C [7]: 104 % of control | T/C [8]: 113 % of control | T/C [9]: 90 % of control

Cc1c2cccc(F)c2c[n+]2ccccc12
T/C (dose: 6.25 mg/kg/injection, schedule: Q01DX009 (ip), vehicle: Klucel (hydroxypropylcellulose) (HPC)): 100 % of control | T/C [3]: 100 % of control | T/C [11]: 106 % of control

O=C(O)C(=O)O.O=C([O-])C(=O)[O-].O=C([O-])C(=O)[O-].[NH-]CC[NH-].[NH-]CC[NH-].[NH-]CC[NH-].[Ru+4].[Ru+5]
T/C (dose: 12.5 mg/kg/injection, schedule: Q04DX003 (ip), vehicle: water): 112 % of control | T/C (dose: 25.0 mg/kg/injection, schedule: Q04DX003 (ip), vehicle: water): 107 % of control

Cc1cc([N+](=O)[O-])cc(C)c1OC(=O)c1ccc(N=C(N)N)cc1
T/C [3]: 98 % of control | T/C [11]: 97 % of control | T/C [12]: 90 % of control
